The supplement of paper PMC3974653
Where a name gives a salt, the structure may show the parent alone.

These molecules were tested on MTT (mouse pheochromocytoma) (assay: IC50 of cell viability (ATP content)). Conditions: (24 or 48 h).
Outline: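 MTT mouse pheochromocytoma cells in white 1536-well plates were treated for 24 or 48 hrs with library compounds at 8 final concentrations from 0.5 nM to 46 µM. ATP content was measured with CellTiter-Glo luminescence, using positive-control wells as 100% and DMSO wells as 0%. IC50 came from a four-parameter logistic fit.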

| Compound | IC50 of cell viability [µM] |
| --- | --- |
| CC(=O)Oc1ccccc1C(=O)O [Acetylsalicylic acid] | > 46 |
| CCOC(=O)c1ncn2c1CN(C)C(=O)c1c(I)cccc1-2 [IOMAZENIL] | > 46 |
| COC1=C(OC)C(=O)C(C/C=C(\C)CC/C=C(\C)CC/C=C(\C)CC/C=C(/C)CC/C=C(\C)CC/C=C(\C)CC/C=C(\C)CC/C=C(\C)CC/C=C(\C)CCC=C(C)C)=C(C)C1=O [Coenzyme Q10] | > 46 |
| O=C1c2ccccc2C(=O)c2ccccc21 [Anthraquinone] | > 46 |
| CC(CC=O)CCCC(C)(C)O (stereo unspecified) [HYDROXYCITRONELLAL] | > 46 |
| COc1cccc(OC)c1C(=O)NC1C(=O)N2C1SC(C)(C)C2C(=O)[O-].[Na+] (stereo unspecified) [METHICILLIN SODIUM] | > 46 |
| C[N+](C)(CCOc1ccccc1)Cc1cccs1.O=S([O-])Oc1ccc(Cl)cc1 [N,N-Dimethyl-N-2-phenoxyethyl-N-2 Äô-thenylammoniu ...] | > 46 |
| Cc1cccc(C)c1NC(=O)c1cc([S+](N)(=O)[O-])c(Cl)cc1O [Xipamide] | > 46 |
| C[C@]12CCC3C(CCC4=CC(=O)CC[C@@H]43)C1CCC2O (stereo partly specified) [19-Norandrostenolone] | > 46 |
| CCCc1ncc(C[n+]2ccccc2C)c(N)n1.Cl.[Cl-] [Amprolium hydrochloride] | > 46 |
| Cc1ccc(O)c(-n2nc3ccccc3n2)c1 [Drometrizole] | > 46 |
| NC(=O)C[C@@H](N)C(=O)O [D-ASPARAGINE] | > 46 |
| CNCC(=O)NC(CCCNC(=N)N)C(=O)NC(C(=O)NC(Cc1ccc(O)cc1)C(=O)NC(C(=O)NC(Cc1cnc[nH]1)C(=O)N1CCCC1C(=O)NC(C)C(=O)O)C(C)C)C(C)C (stereo unspecified) [SARALASIN ACETATE] | > 46 |
| COc1cc(CC(C)N)c(OC)cc1Br (single isomer, unassigned; (-)) [(-)-4-Bromo-2,5-dimethoxyamphetamine] | > 46 |
| Cl.OC(=O)C/1=C/N(C2=CC=C(F)C=C2)C3=C(C=C(F)C(=C3)N4CCNCC4)C1=O [SARAFLOXACIN HYDROCHLORIDE] | > 46 |
| CCOC(=O)O[C@@H](C)OC(=O)[C@@H]1[N@]2[C@@H](SC1(C)C)[C@H](NC(=O)[C@@H](N)C3=CC=CC=C3)C2=O [Bacampicillin hydrochloride] | > 46 |
| C=CCN1CC[C@]23CCCCC2[C@H]1Cc1ccc(O)cc13 (stereo partly specified) [LEVALLORPHAN] | > 46 |
| CCC(=O)OC1CCC2C3CCc4cc(O)ccc4C3CCC12C (stereo unspecified) | > 46 |

| Compound | IC50 of cell viability [µM] |
| --- | --- |
| C=C1C(n2cnc3c(O)nc(N)nc32)C[C@H](O)[C@H]1CO (stereo partly specified) [ENTECAVIR] | > 46 |
| O=C(CCCCCCCCC#CI)Oc1ccccc1 [Phenyl 11-iodo-10-undecynoate] | > 46 |
| Cc1ccc(Cl)c(Nc2ccccc2C(=O)[O-])c1Cl.O.[Na+] [Meclofenamic acid sodium salt monohydrate] | > 46 |
| C[S+](=O)([O-])OCCCCO[S+](C)(=O)[O-] [Busulfan] | > 46 |
| CCCn1c(=O)[nH]c(=O)c2[nH]cnc21 [3-n-PROPYLXANTHINE] | > 46 |
| COc1ccc(CCNC[C@H](O)COc2cccc(C)c2)cc1OC [Bevantolol] | > 46 |
| NCC1(CC(=O)O)CCCCC1 [Gabapentin] | > 46 |
| CCOC(=O)c1ccc(N)cc1 [Benzocaine] | > 46 |
| CCN[C@@H]1C[C@H](C)[S+](=O)([O-])c2sc([S+](N)(=O)[O-])cc21 [Dorzolamide hydrochloride] | > 46 |
| Cc1cn([C@H]2CC(F)[C@@H](CO)O2)c(=O)[nH]c1=O (stereo partly specified) [Alovudine] | > 46 |
| [O-]/[N+](=N/c1ccccc1)c1ccccc1 [Azoxybenzene] | > 46 |
| C[S+](=O)([O-])CCNCc1ccc(-c2ccc3ncnc(Nc4ccc(OCc5cccc(F)c5)c(Cl)c4)c3c2)o1 [LAPATINIB TOSILATE HYDRATE] | > 46 |
| CC#CCC(C)[C@H](O)/C=C/C1[C@H](O)C[C@@H]2C/C(=C\CCCC(=O)O)C[C@H]12 (stereo partly specified) [Iloprost] | > 46 |
| Cc1ccc2c(n1)Oc1ccc(C(C)C(=O)OCC(=O)N(C)C)cc1C2 (stereo unspecified) [Mepranoprofen arbamel] | > 46 |
| CCCOC(=O)c1ccc(N)cc1 [Risocaine] | > 46 |
| C[C@@H](N)[C@@H](O)c1ccc(O)c(O)c1 [(-)3,4-DIHYDROXYNOREPHEDRINE] | > 46 |
| CN1N(C2=CC=CC=C2)C(=O)C(=C1/C)/N [Ampyrone] | > 46 |
| C[C@H](O)C(=O)Nc1c(I)c(C(=O)NC(CO)CO)c(I)c(C(=O)NC(CO)CO)c1I [Iopamidol] | > 46 |
